Source: patent publication US9868748B2, “Thiazolopyrrolidine inhibitors of ROR- γ” (Vitae Pharmaceuticals, Inc., priority 2013, dated 2018)
Like-named read-outs stand apart in the source and are kept apart here.

Tests used:
[1] = target: recombinant RORγ Ligand Binding Domain (LBD) protein (Homo sapiens (Human), UniProt P51449); assay: Radio-Ligand RORγ Binding Assay (Assay 1); details: competition with 25-hydroxy [26,27-3H]-cholesterol, SPA; Table 9; read-out: RORγ Binding Ki Range*
Description: Radio-Ligand RORγ Binding Assay (Assay 1)
Compounds of the present invention were tested for ability to bind to RORγ in a cell-free competition assay with commercially available radio-ligand (RL), 25-hydroxy [26,27-^3H]— cholesterol (PerkinElmer, Cat. # NET674250UC), for a ligand binding site on a recombinant RORγ Ligand Binding Domain (LBD) protein expressed as a 6×His-Glutathione-S-Transferase (GST) fusion (“6×His” disclosed as SEQ ID NO: 2). The assay was performed in 96-well SPA plates (PerkinElmer, Cat. #1450-401) in 50 mM HEPES buffer, pH 7.4, containing 150 mM NaCl, 5 mM MgCl2, 10% (v/v) glycerol, 2 mM CHAPS, 0.5 mM β-octylglucopyranoside and 5 mM DTT. Tested compounds were dissolved in DMSO, and semi-log (3.162×) serial dilutions of the compounds were prepared in the same solvent. Two μL of the DMSO solutions were mixed with 28 μL of 8.6 nM 25-hydroxy [26,27-^3H]— cholesterol and 50 μL of 24 nM RORγ LBD. The plate was shaken at 700 rpm for 20 min and incubated for 10 min at rt, after which 40 μL of poly-Lys YSi SPA beads (PerkinElmer, Cat. # RPNQ0010) were added to achieve 50 μg of the beads per well. The plate was incubated on an orbital shaker for 20 min and then for 10 min without agitation at rt. SPA signal for tritium beta radiation was registered on PerkinElmer Microbeta plate reader. Percent inhibition values were calculated based on the high signal obtained with DMSO control and the low signal observed with 10 μM standard RORγ inverse agonist T0901317 (SigmaAldrich, Cat. # T2320). The percent inhibition vs. concentration data were fit into a four-parameter model, and […] values were calculated from the fit as the concentrations corresponding to the inflection points on the dose-response curves. Inhibitory constants (Ki) were calculated using the following equation, where [RL] is the concentration in the assay and KD is a dissociation constant of 25-hydroxy [26,27-^3H]-cholesterol: […]

[2] = target: full-length RORγt in Jurkat cells (Homo sapiens (Human), UniProt P51449); assay: RORγt 5xRORE Assay in Jurkat Cells (Assay 2); format: cell-based; details: Nanoluc luciferase reporter, 16-18 hrs
Description: [formula] RORγt 5xRORE Assay in Jurkat Cells (Assay 2)
Compounds of the present invention were tested for RORγ inverse agonist activity in a cell-based, transcriptional activity assay. Secreted Nanoluc® luciferase was used as a reporter for transcriptional activity of the full-length RORγt in Jurkat cells (ATCC, Cat. # TIB-152). A reporter plasmid was constructed by inserting 5 repeats of the ROR Response Element (RORE) […] (SEQ ID NO:1) into a commercially available promoterless plasmid pNL1.3[secNluc] (Promega, Cat. # N1021) using KpnI and HindIII restriction sites. The expression plasmid for RORγt was purchased (Geneocopoeia, Cat. # EX-T6988-M02). Jurkat cells (30 million cells) were transfected with 11 μg of EX-T6988-MO2 and 26 μg of the reporter plasmid in OptiMEM® media using Lipofectamine® LTX and Plus™ reagents (Life Technologies, Cat. #15338-100). After 5-6 h of incubation at 37° C./5% CO2, the cells were collected, resuspended in phenol-red free RPMI media containing 10% (v/v) delipidated FBS (Hyclone, Cat. # SH30855.03) and dispensed into 96-well clear bottom tissue culture plates (CoStar, Cat. #3603), at 80,000 cells per well. Tested compounds were added to the cells in the same media (final concentration of DMSO was 0.1% (v/v)), and the plates were incubated at 37° C./5% CO2 for 16-18 hrs. Luciferase activity in the conditioned supernatants was determined with NanoGlo® assay reagents (Promega, Cat. # N1130).

[3] = Table 9, read-out: RORγt5X IC50 Range*
[4] = Table 8, read-out: RORγt5X IC50 Range*

Chain of recombinant RORγ Ligand Binding Domain (LBD) protein (P51449 269-508): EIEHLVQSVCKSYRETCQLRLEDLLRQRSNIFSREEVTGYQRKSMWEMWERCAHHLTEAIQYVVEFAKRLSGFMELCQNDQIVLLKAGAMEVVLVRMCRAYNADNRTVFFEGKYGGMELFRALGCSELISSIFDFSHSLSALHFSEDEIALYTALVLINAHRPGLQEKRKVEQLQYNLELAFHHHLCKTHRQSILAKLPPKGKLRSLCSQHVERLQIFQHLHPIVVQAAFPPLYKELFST
Chain of full-length RORγt in Jurkat cells (P51449 other isoform, or with tags, fused parts or gaps): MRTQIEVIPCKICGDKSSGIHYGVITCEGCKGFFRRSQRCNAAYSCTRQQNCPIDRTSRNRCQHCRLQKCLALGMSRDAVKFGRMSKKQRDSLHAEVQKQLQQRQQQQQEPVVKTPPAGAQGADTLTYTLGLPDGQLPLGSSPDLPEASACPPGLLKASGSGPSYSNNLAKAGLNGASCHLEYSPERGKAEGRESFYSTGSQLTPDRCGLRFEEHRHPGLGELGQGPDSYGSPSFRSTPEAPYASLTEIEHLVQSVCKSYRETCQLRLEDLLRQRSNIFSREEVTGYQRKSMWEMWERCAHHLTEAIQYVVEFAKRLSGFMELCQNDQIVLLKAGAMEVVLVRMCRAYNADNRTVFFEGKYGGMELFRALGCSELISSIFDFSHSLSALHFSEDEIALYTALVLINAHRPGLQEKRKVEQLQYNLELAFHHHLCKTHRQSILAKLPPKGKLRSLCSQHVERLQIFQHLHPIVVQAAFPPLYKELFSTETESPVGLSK

| Compound | Ki [1] [nM] | IC50 [2, 3] [nM] | IC50 [2, 4] [nM] |
| --- | --- | --- | --- |
| CC(C)[C@H]1c2nc(NC(=O)Cc3ccc(C(C)(C)C#N)cc3)sc2CN1Cc1ccc(Cl)cc1 | < 100 | 100 to 1000 |  |
| CCS(=O)(=O)c1ccc(CC(=O)Nc2nc3c(s2)CN(C[C@H]2CC[C@H](O)CC2)[C@H]3C(C)C)cc1 | < 100 | < 100 |  |
| CC(C)[C@H]1c2nc(NC(=O)Cc3ccc(F)c(F)c3)sc2CN1Cc1ccc(C(F)(F)F)cc1 | 100 to 1000 | 100 to 1000 |  |
| CCS(=O)(=O)c1ccc(CC(=O)Nc2nc3c(s2)CN(CC2CCn4c(C)nnc4C2)[C@H]3C(C)C)cc1 (stereo partly shown) | 100 to 1000 | > 1000 |  |
| CC(C)[C@H]1c2nc(NC(=O)Cc3ccc(S(N)(=O)=O)cc3)sc2CN1Cc1ccc(C(F)(F)F)cc1 | < 100 | < 100 |  |
| CC(C)Oc1ccc(CC(=O)Nc2nc3c(s2)CN(Cc2ccc(Cl)cc2)[C@H]3C(C)C)cc1 | 100 to 1000 | > 1000 |  |
| CCS(=O)(=O)c1ccc(CC(=O)Nc2nc3c(s2)CN([C@H](C)c2c(F)cc(Cl)cc2F)[C@H]3C(C)C)cc1 | < 100 | < 100 |  |
| CCS(=O)(=O)c1ccc(CC(=O)Nc2nc3c(s2)CN(Cc2ccn(CC(F)(F)F)c(=O)c2)[C@H]3C(C)C)cc1 | < 100 | < 100 |  |
| CC(C)[C@H]1c2nc(NC(=O)Cc3ccc(-c4nnn(C)n4)cc3)sc2CN1Cc1ccc(Cl)cc1 | 100 to 1000 | 100 to 1000 |  |
| CC(C)[C@H]1c2nc(NC(=O)Cc3ccc(-c4nnnn4C)cc3)sc2CN1Cc1ccc(Cl)cc1 | 100 to 1000 | > 1000 |  |
| CC(C)[C@H]1c2nc(NC(=O)Cc3ccc(Br)cc3)sc2CN1Cc1ccc(Cl)cc1 | 100 to 1000 | > 1000 |  |
| CC(C)[C@H]1c2nc(NC(=O)Cc3ccc(Cl)cc3)sc2CN1Cc1ccc(Cl)cc1 | < 100 | > 1000 |  |
| CC(C)[C@H]1c2nc(NC(=O)Cc3ccc(-c4nnn[nH]4)cc3)sc2CN1Cc1ccc(Cl)cc1 | 100 to 1000 | > 1000 |  |
| CCS(=O)(=O)c1ccc(CC(=O)Nc2nc3c(s2)CN(C[C@H]2CC[C@H](OC)CC2)[C@H]3C(C)C)cc1 | < 100 | 100 to 1000 |  |
| CCS(=O)(=O)c1ccc(CC(=O)Nc2nc3c(s2)CN(C2CCC(C(F)(F)F)CC2)[C@H]3C(C)C)cc1 (stereo partly shown) | < 100 | 100 to 1000 |  |
| COc1ccc(CC(=O)Nc2nc3c(s2)CN(Cc2ccc(Cl)cc2)[C@H]3C(C)C)cc1 | < 100 | > 1000 |  |
| CC(C)[C@H]1c2nc(NC(=O)Cc3ccccc3)sc2CN1Cc1ccc(Cl)cc1 | 100 to 1000 | > 1000 |  |
| CC(C)[C@H]1c2nc(NC(=O)Cc3ccc(S(C)(=O)=O)cc3)sc2CN1Cc1ccn(C(F)F)c(=O)c1 | < 100 | 100 to 1000 |  |
| CCS(=O)(=O)c1ccc(CNC(=O)c2nc3c(s2)CN(Cc2ccc4c(c2)OC(F)(F)O4)[C@H]3C(C)C)nc1 | < 100 | < 100 |  |
| CCS(=O)(=O)c1ccc(CNC(=O)c2nc3c(s2)CN(Cc2ccc4nonc4c2)[C@H]3C(C)C)nc1 | < 100 | 100 to 1000 |  |
| CCS(=O)(=O)c1ccc(CC(=O)Nc2nc3c(s2)CN(CC2CCOCC2)[C@H]3C(C)C)cc1 | < 100 | > 1000 |  |

| Compound | Ki [1] [nM] | IC50 [2, 3] [nM] | IC50 [2, 4] [nM] |
| --- | --- | --- | --- |
| CCS(=O)(=O)c1ccc(CC(=O)Nc2nc3c(s2)CN(C[C@H]2CC[C@H](C#N)CC2)[C@H]3C(C)C)cc1 | < 100 | < 100 |  |
| CCS(=O)(=O)c1ccc(CC(=O)Nc2nc3c(s2)CN(C[C@H]2CC[C@H](C(N)=O)CC2)[C@H]3C(C)C)cc1 | < 100 | 100 to 1000 |  |
| CCS(=O)(=O)c1ccc(CC(=O)Nc2nc3c(s2)CN(Cc2ccn(C(F)F)c(=O)c2)[C@H]3C(C)C)cc1 | < 100 | < 100 |  |
| CCS(=O)(=O)c1ccc(CNC(=O)c2nc3c(s2)CN(Cc2ccc(C(F)F)cc2)[C@H]3C(C)C)nc1 | < 100 | < 100 |  |
| CC[C@H]1c2nc(NC(=O)Cc3ccc(S(=O)(=O)C(F)F)cc3)sc2CN1Cc1ccc(Cl)cc1 | < 100 | 100 to 1000 |  |
| CCS(=O)(=O)c1ccc(CNC(=O)c2nc3c(s2)CN(Cc2cnc(C(F)(F)F)nc2)[C@H]3C(C)C)cc1 | 100 to 1000 | 100 to 1000 |  |
| CCS(=O)(=O)c1ccc(CNC(=O)c2nc3c(s2)CN(Cc2ccc(C(F)(F)F)nc2)[C@H]3C(C)C)cc1 | 100 to 1000 | 100 to 1000 |  |
| CCS(=O)(=O)c1ccc(CC(=O)Nc2nc3c(s2)CN(Cc2ccn(C4CC4)c(=O)c2)[C@H]3C(C)C)cc1 | < 100 | 100 to 1000 |  |
| CC(C)[C@H]1c2nc(NC(=O)Cc3ccc(S(C)(=O)=O)cc3)sc2CN1Cc1ccc(-c2nnn[nH]2)cc1 | 100 to 1000 | > 1000 |  |
| CC[C@H]1c2nc(NC(=O)Cc3ccc(S(=O)(=O)CC)cc3)sc2CN1Cc1ccc2nc[nH]c2c1 | < 100 | 100 to 1000 |  |
| CCS(=O)(=O)c1ccc(CC(=O)Nc2nc3c(s2)CN(C[C@H]2CC[C@@H](C(=O)O)CC2)[C@H]3C(C)C)cc1 | 100 to 1000 | > 1000 |  |
| CCS(=O)(=O)c1ccc(CC(=O)Nc2nc3c(s2)CN(Cc2ccc(=O)n(C)c2)[C@H]3C(C)C)cc1 | < 100 | 100 to 1000 |  |
| CCS(=O)(=O)c1ccc(CC(=O)Nc2nc3c(s2)CN(Cc2ccc(C(F)(F)F)nn2)[C@H]3C(C)C)cc1 | < 100 | < 100 |  |
| CC(C)[C@H]1c2nc(NC(=O)Cc3ccc(S(C)(=O)=O)cc3)sc2CN1Cc1ccc(C(F)(F)F)nn1 | 100 to 1000 | 100 to 1000 |  |
| CCS(=O)(=O)c1ccc(CC(=O)Nc2nc3c(s2)CN(C[C@@H]2CC[C@@H](C(F)(F)F)NC2)[C@H]3C(C)C)nc1 (single isomer, unassigned) | 100 to 1000 |  |  |
| CCS(=O)(=O)c1ccc(CC(=O)Nc2nc3c(s2)CN([C@@H](C)Cc2ccc(F)cc2)[C@@H]3C(C)C)cc1 (single isomer, unassigned) | 100 to 1000 |  |  |
| CC(C)[C@@H]1c2nc(NC(=O)Cc3ccc(S(C)(=O)=O)cc3)sc2CN1[C@@H](C)c1ccc(C(F)(F)F)cc1 (single isomer, unassigned) | 100 to 1000 |  |  |
| CC[C@@H]1c2nc(NC(=O)Cc3ccc(S(C)(=O)=O)cc3)sc2CN1[C@@H](C)c1ccc(OC(F)(F)F)cc1 (single isomer, unassigned) | 100 to 1000 |  |  |
| CCS(=O)(=O)c1ccc(CC(=O)Nc2nc3c(s2)CN(C[C@@H]2CC[C@@H](C(F)(F)F)N(C)C2)[C@H]3C(C)C)cc1 [I-A30] |  |  | < 100 |
| CCS(=O)(=O)c1ccc(CC(=O)Nc2nc3c(s2)CN(Cc2ccc4c(c2)OC(F)(F)O4)[C@H]3C(C)C)nc1 [I-L3] |  |  | < 100 |
